Data from US9512105B2, “1-substituted 4-arylpiperazine as kappa opioid receptor antagonists” (RESEARCH TRIANGLE INSTITUTE, priority 2011, dated 2016).
Where two headings read alike, the source gives them in different places.

What was measured:
[1] = biological target: T1, cloned human δ-opioid receptor (Homo sapiens, UniProt P41143); experiment: Inhibition of DPDPE-stimulated [35S]GTPγS binding; assay type: biochemical
T1 construct: expressed in transfected cells

[2] = biological target: T2, cloned human κ-opioid receptor (Homo sapiens, UniProt P41145); experiment: Inhibition of U69,593-stimulated [35S]GTPγS binding; assay type: biochemical; conditions: for δ/κ / μ/κ: ratio of Ke values; for δ/κ: selectivity for κ relative to δ; for μ/κ: selectivity for κ relative to μ
T2 construct: expressed in transfected cells

[3] = biological target: T3, cloned human μ-opioid receptor (Homo sapiens, UniProt P35372); experiment: Inhibition of DAMGO-stimulated [35S]GTPγS binding; assay type: biochemical
T3 construct: expressed in transfected cells

[4] = antagonism of DPDPE-stimulated [35S]GTPγS binding, cloned human δ receptor, read-out: δ, DPDPE Ke
[5] = antagonism of U69,593-stimulated [35S]GTPγS binding, cloned human κ receptor, read-out: κ, U69,593 Ke
[6] = antagonism of DAMGO-stimulated [35S]GTPγS binding, cloned human μ receptor, read-out: μ, DAMGO Ke

T1 sequence (P41143 whole entry): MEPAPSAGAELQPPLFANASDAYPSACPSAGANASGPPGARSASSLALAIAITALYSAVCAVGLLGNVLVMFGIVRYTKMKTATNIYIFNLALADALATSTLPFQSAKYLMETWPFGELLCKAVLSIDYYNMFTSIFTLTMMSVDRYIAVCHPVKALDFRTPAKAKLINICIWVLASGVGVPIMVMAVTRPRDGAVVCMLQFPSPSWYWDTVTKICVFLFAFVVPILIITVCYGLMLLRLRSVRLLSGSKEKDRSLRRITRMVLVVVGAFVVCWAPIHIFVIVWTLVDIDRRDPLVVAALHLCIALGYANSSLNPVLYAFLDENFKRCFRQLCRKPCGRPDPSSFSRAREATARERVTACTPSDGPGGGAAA
T3 sequence (P35372 whole entry): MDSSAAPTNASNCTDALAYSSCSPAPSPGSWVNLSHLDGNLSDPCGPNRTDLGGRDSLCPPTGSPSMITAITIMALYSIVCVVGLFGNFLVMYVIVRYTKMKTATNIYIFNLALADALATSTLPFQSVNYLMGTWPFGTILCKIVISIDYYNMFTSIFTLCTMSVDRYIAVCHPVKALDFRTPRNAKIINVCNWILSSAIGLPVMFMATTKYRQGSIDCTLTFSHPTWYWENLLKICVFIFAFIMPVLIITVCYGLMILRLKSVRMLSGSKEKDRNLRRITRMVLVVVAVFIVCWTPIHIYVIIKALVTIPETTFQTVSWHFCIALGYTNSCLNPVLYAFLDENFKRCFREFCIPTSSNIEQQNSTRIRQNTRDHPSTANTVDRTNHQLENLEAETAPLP
T2 sequence (P41145 whole entry): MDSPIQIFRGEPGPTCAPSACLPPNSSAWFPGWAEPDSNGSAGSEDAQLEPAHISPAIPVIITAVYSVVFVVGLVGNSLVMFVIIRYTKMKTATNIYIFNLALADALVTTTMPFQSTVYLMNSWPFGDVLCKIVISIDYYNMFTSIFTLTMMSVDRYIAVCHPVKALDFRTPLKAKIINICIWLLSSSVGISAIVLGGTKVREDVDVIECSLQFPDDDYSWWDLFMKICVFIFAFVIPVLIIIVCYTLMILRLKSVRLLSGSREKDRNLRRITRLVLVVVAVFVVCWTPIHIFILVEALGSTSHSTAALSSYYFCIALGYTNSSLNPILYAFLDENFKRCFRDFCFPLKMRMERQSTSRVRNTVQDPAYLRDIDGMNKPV

| Compound | Kb [1, 4] [nM] | melting point [°C] | Kb [2, 5] [nM] | δ/κ ([2]; Dihydrochloride) | Kb [3, 6] [nM] | δ/κ [2] | μ/κ [2] | Kb [1] [nM] | Kb [3] [nM] | Kb [2] [nM] |
| --- | --- | --- | --- | --- | --- | --- | --- | --- | --- | --- |
| Cc1cccc(Oc2ccc(C(=O)N[C@H](CN3CCN(c4cccc(O)c4)[C@@H](C)C3)C(C)C)cc2C)c1.Cl.Cl [Compound 19g, N-[(2S)-1-[(3S)-4-(3-Hydroxyphenyl)-3-methylpiperazin-1-yl]-3-methylbutan-2-yl]-3-methyl-4-(3-methylphenoxy)benzamide Dihydrochloride] | 21 ± 6 | 124 to 130 | 0.16 ± 0.03 | 131 | 14.4 ± 3.9 |  |  |  |  |  |
| COc1cc(C(=O)N[C@H](CN2CCN(c3cccc(O)c3)[C@@H](C)C2)C(C)C)ccc1Oc1cccc(C)c1.Cl.Cl [Compound 19h, N-[(2S)-1-[(3S)-4-(3-Hydroxyphenyl)-3-methylpiperazin-1-yl]-3-methylbutan-2-yl]-3-methoxy-4-(3-methylphenoxy)benzamide Dihydrochloride] | 93 ± 4 | 128 to 131 | 0.25 ± 0.07 |  | 35.1 ± 15 |  |  |  |  |  |
| Cc1cccc(Oc2ccc(C(=O)N[C@H](CN3CCN(c4cccc(O)c4)[C@@H](C)C3)C(C)C)cc2O)c1.Cl.Cl [Compound 19i, 3-Hydroxy-N-[(2S)-1-[(3S)-4-(3-hydroxyphenyl)-3-methylpiperazin-1-yl]-3-methylbutan-2-yl]-4-(3-methylphenoxy)benzamide Dihydrochloride] | 81 ± 35 | 195 to 200 | 0.57 ± 0.14 |  | 13.7 ± 5.6 | 142 | 24 |  |  |  |
| Cc1cccc(Oc2ccc(C(=O)N[C@H](CN3CCN(c4cccc(O)c4)[C@@H](C)C3)C(C)C)c(C)c2)c1.Cl.Cl [Compound 19j, N-[(1S)-1-{[(3S)-4-(3-Hydroxyphenyl)-3-methylpiperazin-1-yl]methyl}-2-methylpropyl]-2-methyl-4-(3-methylphenoxy)benzamide Dihydrochloride] |  | 164 to 167 | 0.65 ± 0.2 |  |  | 28 | 22 | 18 ± 3 | 14 ± 3 |  |
| COc1cc(Oc2cccc(C)c2)ccc1C(=O)N[C@H](CN1CCN(c2cccc(O)c2)[C@@H](C)C1)C(C)C.Cl.Cl [Compound 19k, N-[(1S)-1-{[(3S)-4-(3-Hydroxyphenyl)-3-methylpiperazin-1-yl]methyl}-2-methylpropyl]-2-methoxy-4-(3-methylphenoxy)benzamide Dihydrochloride] | 63 ± 20 | 99 to 102 | 1.3 ± 0.03 |  | 49 ± 14 | 48 | 38 |  |  |  |
| Cc1cccc(Oc2ccc(C(=O)N[C@H](CN3CCN(c4cccc(O)c4)[C@@H](C)C3)C(C)C)c(O)c2)c1.Cl.Cl [Compound 19l, 2-Hydroxy-N-[(1S)-1-{[(3S)-4-(3-hydroxyphenyl)-3-methylpiperazin-1-yl]methyl}-2-methylpropyl]-4-(3-methylphenoxy)benzamide Dihydrochloride] |  | 119 to 123 |  |  |  | 129 | 81 | 233 ± 90 | 145 ± 48 | 1.8 ± 0.3 |
| COc1cc(C(=O)N[C@H](CN2CCN(c3cccc(O)c3)[C@@H](C)C2)C(C)C)ccc1Oc1ccccc1O.Cl.Cl [Compound 19m, 4-(2-Hydroxyphenoxy)-N-[(1S)-1-{[(3S)-4-(3-hydroxyphenyl)-3-methylpiperazin-1-yl]methyl}-2-methylpropyl]-3-methoxybenzamide Dihydrochloride] |  | 95 to 97 | 16.3 ± 2.7 |  | 74 ± 23 | 4 | 5 | 67 ± 47 |  |  |
| COc1cc(C(=O)N[C@H](CN2CCN(c3cccc(O)c3)[C@@H](C)C2)C(C)C)ccc1Oc1cc(C)ccc1O.Cl.Cl [Compound 19o, 4-(2-Hydroxy-5-methylphenoxy)-N-[(1S)-1-{[(3S)-4-(3-hydroxyphenyl)-3-methylpiperazin-1-yl]methyl}-2-methylpropyl]-3-methoxybenzamide Dihydrochloride] |  | 100 to 103 | 6.2 ± 2.2 |  |  | 6 | 2 | 37 ± 13 | 10 ± 2.6 |  |
| Cc1ccc(O)c(Oc2ccc(C(=O)N[C@H](CN3CCN(c4cccc(O)c4)[C@@H](C)C3)C(C)C)cc2Cl)c1.Cl.Cl [Compound 19p, 3-Chloro-4-(2-hydroxy-5-methylphenoxy)-N-[(1S)-1-{[(3S)-4-(3-hydroxyphenyl)-3-methylpiperazin-1-yl]methyl}-2-methylpropyl]benzamide Dihydrochloride] | 15 ± 3.6 | 145 to 148 | 3 ± 1.1 |  | 8.2 ± 1.7 | 5 | 3 |  |  |  |
